According to US20090022729A1, “METHODS AND COMPOSITIONS FOR TREATING CARDIAC DYSFUNCTIONS” (priority 2007, published 2009):

What was measured:
thrombin [1] = molecular target: T1, thrombin (Mus musculus, UniProt P19221); assay: short-term cardiac I/R injury model (30 minutes of ischemia and 2 hours of reperfusion); type: in vivo; conditions: WT mice, hirudin vs saline, FIG. 1A
T1 construct: from tissue; host or cells: wild-type mice in vivo (blood / injured myocardium)
Procedure: Cardiac I/R injury models. For the short-term I/R model (30 minutes of ischemia and 2 hours of reperfusion), the surgical protocol and infarct size determination were performed as described in Palazzo et al. (Am. J. Physiol. 275:H2300-H2307 (1998)) with some modifications. Briefly, intraperitoneal injection of pentobarbital (100 mg/kg) (Abbott Laboratories, Abbott Park, Ill.) was used for anesthesia. Mice were orally intubated to provide artificial ventilation (0.3 mL tidal volume, 120 breaths/minute). The left anterior descending coronary artery was occluded with a 7-0 silk suture (U.S. Surgical Corp., Norwalk, Conn.) passed through PE tubing (U.S. Surgical Corp.) to make a Rumel snare. After 30 minutes of ischemia, the snare was released and the heart was reperfused for 2 hours. Finally, the artery was reoccluded and 4% Evans Blue dye was injected into the aortic root to delineate the area-at-risk (AAR) from not at-risk myocardium (blue). […] The LV, AAR and infarct areas were traced and calculated by computer planimetry (Image J, version 1.21). Infarct volumes were calculated as: [(A1×W1)+(A2×W2)+(A3×W3)+(A4×W4)+(A5×W5)], where A is the area of infarct for the slice denoted by the subscript and W is the weight of the respective section.

PAR-1 [2] = molecular target: T2, PAR-1 (Homo sapiens, UniProt P25116); conditions: cited from earlier work
T2 sequence (P25116 22-425): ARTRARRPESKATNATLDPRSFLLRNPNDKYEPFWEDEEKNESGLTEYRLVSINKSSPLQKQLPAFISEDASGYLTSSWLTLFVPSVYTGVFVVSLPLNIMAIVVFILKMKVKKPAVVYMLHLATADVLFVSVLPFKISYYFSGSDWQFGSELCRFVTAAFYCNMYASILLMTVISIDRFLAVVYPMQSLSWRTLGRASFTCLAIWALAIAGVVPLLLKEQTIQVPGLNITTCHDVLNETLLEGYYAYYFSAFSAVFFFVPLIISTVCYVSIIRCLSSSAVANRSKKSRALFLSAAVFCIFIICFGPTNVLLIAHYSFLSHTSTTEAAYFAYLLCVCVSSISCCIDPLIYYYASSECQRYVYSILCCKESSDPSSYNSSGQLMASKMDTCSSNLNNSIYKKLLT

PAR-1 [3] = molecular target: T2, PAR-1; conditions: cited from earlier work; remark: listed apart in the source
PAR2 = molecular target: T3, PAR2 (Homo sapiens, UniProt P55085); conditions: cited from earlier work
T3 sequence (P55085 26-397): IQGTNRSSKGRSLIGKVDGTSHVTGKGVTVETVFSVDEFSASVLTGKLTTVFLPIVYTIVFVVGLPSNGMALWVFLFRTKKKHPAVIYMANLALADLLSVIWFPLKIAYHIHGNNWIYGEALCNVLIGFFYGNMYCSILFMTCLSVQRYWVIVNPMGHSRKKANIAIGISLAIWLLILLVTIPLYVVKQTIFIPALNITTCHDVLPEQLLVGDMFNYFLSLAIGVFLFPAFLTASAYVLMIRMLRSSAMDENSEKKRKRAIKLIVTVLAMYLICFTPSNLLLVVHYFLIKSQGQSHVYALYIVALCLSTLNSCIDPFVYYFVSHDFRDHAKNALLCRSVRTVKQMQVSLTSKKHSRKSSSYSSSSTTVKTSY

PAR3 = molecular target: T4, PAR3 (Homo sapiens, UniProt O00254); conditions: cited from earlier work
T4 sequence (O00254 22-374): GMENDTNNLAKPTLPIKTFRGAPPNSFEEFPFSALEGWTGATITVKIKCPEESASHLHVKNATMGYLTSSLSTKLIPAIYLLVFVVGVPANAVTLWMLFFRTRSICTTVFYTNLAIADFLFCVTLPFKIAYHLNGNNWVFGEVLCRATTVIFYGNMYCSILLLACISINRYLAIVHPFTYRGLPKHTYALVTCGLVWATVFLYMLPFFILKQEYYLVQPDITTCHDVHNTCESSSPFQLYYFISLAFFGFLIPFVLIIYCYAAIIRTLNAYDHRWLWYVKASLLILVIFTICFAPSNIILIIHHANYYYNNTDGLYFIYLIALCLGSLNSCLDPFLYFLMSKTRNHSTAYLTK

PAR4 = molecular target: T5, PAR4 (Homo sapiens, UniProt Q96RI0); conditions: cited from earlier work
T5 sequence (Q96RI0 18-385): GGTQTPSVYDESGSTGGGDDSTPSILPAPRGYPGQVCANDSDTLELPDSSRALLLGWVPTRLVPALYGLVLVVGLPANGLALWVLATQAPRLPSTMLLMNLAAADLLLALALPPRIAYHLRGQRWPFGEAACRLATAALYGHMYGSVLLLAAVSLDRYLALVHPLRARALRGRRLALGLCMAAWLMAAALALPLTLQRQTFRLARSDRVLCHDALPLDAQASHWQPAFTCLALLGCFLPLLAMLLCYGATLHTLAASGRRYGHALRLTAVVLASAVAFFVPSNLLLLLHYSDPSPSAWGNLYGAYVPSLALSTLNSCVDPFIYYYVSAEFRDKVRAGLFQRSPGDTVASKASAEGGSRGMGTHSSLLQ

thrombin [4] = molecular target: thrombin (Homo sapiens, UniProt P00734); conditions: cited from earlier work

| Compound | infarct size (thrombin [1]) | size of the area at-risk (thrombin [1]) | PAR1 antagonist activity and selectivity (PAR-1 [2]) | calcium mobilization (PAR-1 [3]) | effect on PAR2 (PAR2) | effect on PAR3 (PAR3) | effect on PAR4 (PAR4) | inhibition of thrombin activity (thrombin [4]) |
| --- | --- | --- | --- | --- | --- | --- | --- | --- |
| hirudin | decreased | Neither hirudin treatment nor PAR1 deficiency affected |  |  |  |  |  |  |
| NCC[C@H](NC(=O)[C@H](Cc1ccc(F)c(F)c1)NC(=O)Nc1ccc2c(CN3CCCC3)cn(Cc3c(Cl)cccc3Cl)c2c1)C(=O)NCc1ccccc1 [RWJ-56110, (αS)—N-[(1S)-3-amino-1-[[(phenylmethyl)amino]carbonyl]propyl]-α-[[[[[1-(2,6-dichlorophenyl)methyl]-3-(1-pyrrolidinylmethyl)-1H-indol-6-yl]amino]carbonyl]amino]-3,4-difluorobenzenepropanamide] |  |  | potent, selective PAR-1 antagonist | interferes with calcium mobilization | does not affect | does not affect | does not affect | does not affect PAR2, PAR3, or PAR4 or inhibit thrombin activity |
